Experimental data as given in PMC3865801 (Journal of Medicinal Chemistry, 2013).
Entries after “also recorded” stand apart in the source; their conditions may differ. Like-named read-outs stand apart in the source and are kept apart here.

What was measured:
[1] = target: T1, recombinant purified mouse perforin (Mus musculus, UniProt P10820); assay: Inhibitor binding to immobilized perforin by SPR (Biacore T200); conditions: for binding to immobilized perforin by SPR: analyte ≤2.5 μM, 5% DMSO running buffer; for Kd: single site specific binding model, read-out: calculated KD
T1 sequence (P10820 21-554): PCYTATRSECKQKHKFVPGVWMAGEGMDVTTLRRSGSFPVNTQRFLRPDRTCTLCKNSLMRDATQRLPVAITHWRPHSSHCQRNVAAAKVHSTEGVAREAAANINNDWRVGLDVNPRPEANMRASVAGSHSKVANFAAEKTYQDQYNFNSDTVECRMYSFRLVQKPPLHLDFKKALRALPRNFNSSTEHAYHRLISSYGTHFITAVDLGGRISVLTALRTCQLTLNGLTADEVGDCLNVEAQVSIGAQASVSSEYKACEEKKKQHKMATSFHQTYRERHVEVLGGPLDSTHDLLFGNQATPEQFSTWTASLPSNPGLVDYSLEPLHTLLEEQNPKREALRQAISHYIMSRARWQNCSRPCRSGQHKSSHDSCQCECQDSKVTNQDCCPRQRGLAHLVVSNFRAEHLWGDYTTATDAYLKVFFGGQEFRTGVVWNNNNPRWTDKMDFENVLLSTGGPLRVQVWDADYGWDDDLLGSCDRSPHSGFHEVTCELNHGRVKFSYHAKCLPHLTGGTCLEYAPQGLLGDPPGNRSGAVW
Description: While several series of potent inhibitors have now been identified,[23]−[26] little is known about the mechanism by which the cytolytic activity of perforin action is blocked. In order to find out more about the nature and degree of inhibitor binding, recombinant purified mouse perforin was immobilized on a surface plasmon resonance (SPR) S-series CM5 sensor chip using standard amide coupling methodology.
Binding experiments with surface immobilized wild-type perforin monomers on a S-series CM5 sensor chip (GE Healthcare Life Sciences) were carried out using a Biacore T200 SPR machine (GE Healthcare Life Sciences). Perforin monomer solution (25 μg/mL in 10 mM sodium acetate, pH 5.5) was injected over the sensor chip surface under standard amide coupling conditions to obtain covalent binding of the protein (density = 4257 RU). The initial and running buffers were made from a 10× stock solution of HEPES buffered saline (HBS). 10× HBS (50 mL) was diluted to 500 mL with water and filtered through a 0.22 μm filter (initial buffer). This initial buffer (380 mL) was added to DMSO (20 mL) to prepare the 5% DMSO running buffer. Stock solutions (2.5 mM) of compound were prepared in 100% DMSO. These solutions were diluted in HEPES initial buffer to 5% DMSO (125 μM) and then subsequently diluted to the required concentrations using HEPES running buffer containing 5% DMSO to maintain a constant DMSO concentration. A solvent correction was run before and after the injections to account for differences in DMSO concentrations between buffer and analyte solutions.

[2] = Toxicity to KHYG-1 NK cells (Trypan blue exclusion); assay type: cell-based, human; conditions: human, viability after 24 h; for viability at 4 h, 20 µM: 4 h exposure, Trypan blue, ± SEM
Experimental: The toxicity assay was carried out in exactly the same manner as the killing assay above, but instead of adding the labeled K562 target cells, 100 μL of RPMI 0.1% BSA was added. Cells were incubated for 4 h at 37 °C and then washed ×3 in RPMI + 0.1% BSA. […] Trypan blue was added to each well. Viable (clear) cells and total (clear + blue) cells were counted, and the percentage of viable cells was calculated compared to DMSO treated cell control (% viability).

[3] = target: T2, purified recombinant perforin (Mus musculus, UniProt P10820); assay: cell-based; assay type: cell-based; conditions: lysis of Jurkat cells by purified recombinant perforin, 51Cr release, 0.1% BSA; average of at least three determinations; read-out: inhibition of Jurkat cell lysis, IC50
T2 sequence (P10820 21-554): T1 sequence (P10820 21-554)
Experimental: The ability of the compounds to inhibit the lysis of nucleated (Jurkat T lymphoma) cells in the presence of 0.1% BSA was measured by release of ^51Cr label. Jurkat target cells were labeled by incubation in medium with 100 μCi ^51Cr for 1 h. The cells were then washed three times to remove unincorporated isotope and resuspended at 1 × 10^5 cells per milliliter in RPMI buffer supplemented with 0.1% BSA. […] Each data point was performed in triplicate, and an IC50 was calculated from the range of concentrations described above.

[4] = Aqueous solubility of parent compound and sodium salt
[5] = target: T3, perforin produced by an intact NK cell line (KHYG-1) (Homo sapiens, UniProt P14222); assay: KHYG-1 cytotoxicity assay: perforin-induced lysis of K562 target cells co-incubated with KHYG-1 NK cells; assay type: cell-based; conditions: for inhibition at 5 µM: KHYG-1
T3 construct: the perforin is delivered by a functional NK cell; endogenous in cells; host or cells: KHYG-1 NK cells (K562 target cells)
T3 sequence (P14222 22-555): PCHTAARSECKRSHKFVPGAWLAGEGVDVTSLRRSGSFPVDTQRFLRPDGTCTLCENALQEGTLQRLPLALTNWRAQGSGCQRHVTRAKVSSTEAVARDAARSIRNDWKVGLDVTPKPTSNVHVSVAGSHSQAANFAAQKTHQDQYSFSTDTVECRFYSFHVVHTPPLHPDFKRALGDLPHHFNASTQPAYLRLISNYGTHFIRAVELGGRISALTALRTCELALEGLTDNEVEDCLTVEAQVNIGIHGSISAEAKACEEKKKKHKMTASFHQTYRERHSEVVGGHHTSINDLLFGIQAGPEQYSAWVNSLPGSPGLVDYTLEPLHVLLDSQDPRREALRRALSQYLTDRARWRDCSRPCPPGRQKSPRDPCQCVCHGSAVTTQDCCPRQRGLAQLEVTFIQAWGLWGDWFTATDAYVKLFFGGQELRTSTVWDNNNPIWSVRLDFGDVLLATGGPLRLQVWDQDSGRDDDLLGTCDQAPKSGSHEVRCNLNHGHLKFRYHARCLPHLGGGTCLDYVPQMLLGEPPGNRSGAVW
Experimental: KHYG-1 cells were washed and resuspended in RPMI + 0.1% BSA at 4 × 10^5 cells/mL, and an amount of 50 μL of KHYG-1 cells was dispensed to each well of a 96-well V-bottom plate. RPMI (50 μL) + 0.1% BSA or 10% (final concentration) of serum was added to each well. Then test compounds were added to KHYG-1 cells at various concentrations up to 20 μM and incubated at room temperature for 20 min. 1 × 10^6 K562 target cells were labeled with 75 μCi ^51Cr in 200 μL of RPMI for 90 min at 37 °C. Cells were washed as described above and resuspended in 5 mL of RPMI + 0.1% BSA. […] The percentage of specific cytotoxicity was calculated using the following formula: [drawing 4] and expressed as the mean of triplicate assays ± standard error of the mean.

[6] = Maximum tolerated dose (MTD) in C57BL/6 mice; conditions: C57BL/6, mouse, in vivo, ip
Experimental: The MTD was determined by single dose or b.i.d. × 3 intraperitoneal administration through a classical dose escalation design in C57BL/6 mice and defined as a dose level that was tolerated by mice (n = 2–3 mice/group) with a body weight loss of <10% and no death or detectable sickness. […] All animal experiments were approved by the Animal Ethics Committee of the University of Auckland.

[7] = intraperitoneal, twice daily over 3 days, read-out: MTD, multiple dosing
[8] = single intraperitoneal dose, mice, read-out: MTD, single dose
[9] = SI Figure 2: 0, 0.25, 1.25 and 2.5 µM
[10] = SI Figure 3: further dilution series 0–2.5 µM

SMILES	binding to immobilized perforin by SPR [1]	viability at 4 h, 5 µM ([2]; KHYG-1 NK cells, 5 μM) [%]	viability at 4 h, 20 µM [2] [%]	IC50 [3] [nM]	solubility [4] [µg/mL]	inhibition at 5 µM ([5]; 10% mouse serum, read-out: KHYG-1 inhibition, 10% serum) [%]	inhibition at 5 µM ([5]; no serum, read-out: KHYG-1 inhibition, no serum) [%]	inhibition at 20 µM ([5]; read-out: KHYG-1 inhibition (% at 20 μM), 10% serum) [%]	inhibition at 20 µM ([5]; read-out: KHYG-1 inhibition (% at 20 μM), no serum) [%]	MTD at 96 h [6, 7] [mg/kg]	MTD at 96 h [6, 8] [mg/kg]	calculated Rmax [1, 9] [RU]	Kd [1, 9] [nM]	calculated Rmax [1, 10] [RU]	Kd [1, 10] [nM]	viability at 4 h, 20 µM ([2]; KHYG-1 NK cells) [%]	solubility ([4]; aqueous medium (not further specified)) [µg/mL]	inhibition at 20 µM ([5]; 20 μM, 10% mouse serum, K562 targets, ± SEM, read-out: KHYG-1 inhibition (% at 20 μM), 10% serum) [%]	inhibition at 20 µM ([5]; 20 μM, no serum, K562 targets, vs untreated control, ± SEM, read-out: KHYG-1 inhibition (% at 20 μM), no serum) [%]
O=C1NC(=S)N/C1=C/c1ccc(-c2ccc3c(c2)CCNC3=O)s1 [compound 167]	linear concentration response; also recorded: bind reversibly	82 ± 3.6	38 ± 7.8	1140	0.53	34 ± 6.4	51 ± 4.2	81 ± 5.3	83 ± 4.6	40	60	–	–	–	–	–	–	–	–
CC1c2cc(-c3ccc(/C=C4/NC(=S)NC4=O)s3)ccc2C(=O)N1C (centres unmarked) [compound 135, (E,Z)-2,3-Dimethyl-5-(5-((5-oxo-2-thioxoimidazolidin-4-ylidene)methyl)thiophen-2-yl)isoindolin-1-one]	saturable binding; also recorded: bind reversibly	–	–	3210	–	–	–	–	–	60	80	1.23 ± 0.10	1790 ± 550	8.66 ± 2.81	2390 ± 1230	74 ± 8.3	1.32	67 ± 6.1	90 ± 4
